Patent US20240247080A1, “GLP1/GIP/NPY2 RECEPTOR TRIPLE AGONISTS” (Boehringer Ingelheim International GmbH, priority 2022, published 2024)
Where two headings read alike, the source gives them in different places.

Key:
hNPY2R = molecular target: T1, hNPY2R (Homo sapiens, UniProt P49146); experiment: hNPY2R CreLuc reporter gene assay in 0.5% and 100% plasma; type: cell-based; conditions: CreLuc reporter gene assay
T1 construct: expressed in transfected cells; host or cells: HEK-293 cells carrying a CRE-luciferase reporter gene
T1 sequence (P49146 1-381): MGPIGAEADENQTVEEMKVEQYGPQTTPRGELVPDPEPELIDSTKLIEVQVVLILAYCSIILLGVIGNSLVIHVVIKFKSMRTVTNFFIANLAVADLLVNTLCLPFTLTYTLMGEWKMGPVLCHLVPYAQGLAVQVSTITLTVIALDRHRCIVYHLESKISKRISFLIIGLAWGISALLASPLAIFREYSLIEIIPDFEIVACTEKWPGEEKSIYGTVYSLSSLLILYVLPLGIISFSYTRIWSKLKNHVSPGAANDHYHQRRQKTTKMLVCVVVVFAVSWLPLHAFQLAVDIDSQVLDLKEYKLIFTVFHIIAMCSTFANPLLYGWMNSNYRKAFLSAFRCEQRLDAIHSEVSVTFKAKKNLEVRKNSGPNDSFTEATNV
How it was run: (§1)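 HEK cells (GLP-1R, NPY2R) or CHO cells (GIPR) carrying a CRE-luciferase reporter, incubated 4 h at 37 °C with peptides in HBSS/20 mM HEPES pH 7.4 plus 0.5% human plasma, or in 100% plasma. Luminescence read; EC50 from 8-point variable-slope sigmoid fits.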

hGLP1R = molecular target: T2, hGLP1R (Homo sapiens, UniProt P43220); experiment: hGLP1R CreLuc reporter gene assay in 0.5% and 100% plasma; type: cell-based; conditions: CreLuc reporter gene assay
T2 construct: expressed in transfected cells; host or cells: HEK-293 cells carrying a CRE-luciferase reporter gene
How it was run: as §1

hGIPR = molecular target: T3, hGIPR (Homo sapiens, UniProt P48546); experiment: hGIPR CreLuc reporter gene assay in 0.5% and 100% plasma; type: cell-based; conditions: CreLuc reporter gene assay
T3 construct: expressed in transfected cells; host or cells: CHO cells carrying a CRE-luciferase reporter gene
T3 sequence (P48546 22-466): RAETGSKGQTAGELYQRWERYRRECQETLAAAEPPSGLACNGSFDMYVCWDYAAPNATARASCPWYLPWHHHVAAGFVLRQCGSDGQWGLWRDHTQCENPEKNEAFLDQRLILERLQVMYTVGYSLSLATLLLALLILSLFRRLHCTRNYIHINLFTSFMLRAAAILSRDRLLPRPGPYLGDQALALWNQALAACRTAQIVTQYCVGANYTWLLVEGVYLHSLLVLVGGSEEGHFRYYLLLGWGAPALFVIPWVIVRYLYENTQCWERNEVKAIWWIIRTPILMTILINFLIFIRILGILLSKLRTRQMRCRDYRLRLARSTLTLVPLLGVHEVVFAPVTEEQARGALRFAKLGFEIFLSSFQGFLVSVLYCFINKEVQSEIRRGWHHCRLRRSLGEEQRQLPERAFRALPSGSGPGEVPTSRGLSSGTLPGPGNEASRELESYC
How it was run: as §1

[1] = Mouse PK after intravenous application; type: in vivo; conditions: plasma, mean residence time, intravenous 30-60 nmol/kg, male NMRI mice
Description: Pharmacokinetic parameters of the peptides were determined after intravenous application to NMRI mice. Male NMRI mice were obtained from Janvier Laboratories (France) weighing 30 to 40 g. Mice were housed in standard cages with a 12:12 hour light:dark cycle and standard food and water access ad libitum. Each test peptide was dissolved in 50 mM phosphate buffer (pH 7.4)/3.5% mannitol. Intravenous application of 30-60 nmol/kg was performed via the tail vein. Serial blood samples from conscious mice were collected from the saphenous vein in EDTA-containing vials at different time points up to 56 hours post-dosing. Subsequently, plasma was prepared by centrifugation for 5 min at approximately 5000 rpm and stored at −20° C. until quantification of the peptide plasma levels by liquid chromatography mass spectrometry (LC-MS). Individual plasma concentration—time profiles were analysed by a non-compartmental approach and the resulting pharmacokinetic parameters were calculated.

[2] = 0.5% human plasma, read-out: hGLP1R 0.5% hP
[3] = 0.5% human plasma, read-out: hGIPR 0.5% hP
[4] = 100% human plasma, read-out: hGIPR 100% hP
[5] = 0.5% human plasma, read-out: hNPY2R 0.5% hP

T2 sequence (P43220 24-463): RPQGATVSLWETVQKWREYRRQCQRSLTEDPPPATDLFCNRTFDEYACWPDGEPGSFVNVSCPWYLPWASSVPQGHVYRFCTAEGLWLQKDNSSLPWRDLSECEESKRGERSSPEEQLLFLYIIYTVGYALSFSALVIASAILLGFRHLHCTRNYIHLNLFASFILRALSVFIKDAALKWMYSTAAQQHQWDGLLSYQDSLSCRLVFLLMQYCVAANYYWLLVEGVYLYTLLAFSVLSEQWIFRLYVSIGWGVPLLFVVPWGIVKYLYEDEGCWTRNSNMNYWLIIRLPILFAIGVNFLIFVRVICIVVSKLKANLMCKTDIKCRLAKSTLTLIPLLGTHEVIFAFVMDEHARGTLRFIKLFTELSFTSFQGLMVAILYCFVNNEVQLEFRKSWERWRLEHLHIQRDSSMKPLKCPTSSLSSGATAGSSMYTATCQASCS

| EC50 (hNPY2R; 100% human plasma, read-out: hNPY2R 100% hP) [nM] | EC50 (hGLP1R; [2]) [nM] | EC50 (hGIPR; [3]) [nM] | EC50 (hGIPR; [4]) [nM] | MRT [1] [h] | EC50 (hNPY2R; [5]) [nM] | EC50 (hGLP1R; 100% human plasma, read-out: hGLP1R 100% hP) [nM] | Compound |
| --- | --- | --- | --- | --- | --- | --- | --- |
| 21 | 0.1 | 0.17 | 1.11 | 6.7 | – | – | CC[C@H](C)[C@H](NC(=O)[C@H](CC(C)C)NC(=O)[C@H](Cc1c[nH]c2ccccc12)NC(=O)[C@H](CCC(=O)O)NC(=O)[C@@H](NC(=O)[C@H](Cc1ccccc1)NC(=O)[C@H](C)NC(=O)C(C)(C)NC(=O)[C@H](CCC(N)=O)NC(=O)[C@H](C)NC(=O)[C@H](CCC(N)=O)NC(=O)[C@H](CCCCN)NC(=O)[C@H](CCC(=O)O)NC(=O)[C@H](CC(C)C)NC(=O)C(C)(C)NC(=O)[C@@H](NC(=O)[C@H](CO)NC(=O)[C@H](Cc1ccc(O)cc1)NC(=O)[C@H](CC(=O)O)NC(=O)[C@H](CO)NC(=O)[C@@H](NC(=O)[C@H](Cc1ccccc1)NC(=O)[C@@H](NC(=O)CNC(=O)[C@H](CCC(=O)O)NC(=O)C(C)(C)NC(=O)[C@@H](N)Cc1ccc(O)cc1)[C@@H](C)O)[C@@H](C)O)[C@@H](C)CC)C(C)C)C(=O)N[C@@H](CCCCNC(=O)[C@@H](N)CCCCNC(=O)CC[C@H](NC(=O)CC[C@H](NC(=O)CC[C@H](NC(=O)CC[C@H](NC(=O)CC[C@H](NC(=O)CC[C@H](NC(=O)CCCCCCCCCCCCCCCCCCC(=O)O)C(=O)O)C(=O)O)C(=O)O)C(=O)O)C(=O)O)C(=O)O)C(=O)NCC(=O)NCC(=O)N1CCC[C@H]1C(=O)N[C@@H](CO)C(=O)N[C@@H](CO)C(=O)NCC(=O)N[C@H](C(=O)N[C@@H](CO)C(=O)N[C@H](C(=O)N[C@@H](CCCNC(=N)N)C(=O)N[C@@H](Cc1c[nH]cn1)C(=O)N[C@@H](Cc1ccc(O)cc1)C(=O)N[C@@H](Cc1ccc(O)cc1)C(=O)N[C@@H](CC(N)=O)C(=O)N[C@@H](Cc1c[nH]c2ccccc12)C(=O)N[C@@H](CC(C)C)C(=O)N[C@H](C(=O)N[C@@H](CCCNC(=N)N)C(=O)N[C@@H](CCC(N)=O)C(=O)N[C@@H](CCCNC(=N)N)C(=O)N[C@@H](Cc1ccc(O)cc1)C(N)=O)[C@@H](C)O)[C@@H](C)CC)C(C)C [Compound 27, Y-Aib-E-G-T-F-T-S-D-Y-S-I-Aib-L-E-K-Q-A-Q-Aib-A-F-V-E-W-L-I-K(1,3)-GGPSSGVSIRHYYNWLTRQRY-NH2.C20DA-gGlu-gGlu-gGlu-gGlu-gGlu-gGlu-eLys(1,2)] |
| – | 0.17 | 0.13 | 1.06 | 10.3 | 28.8 | 2.87 | CC[C@H](C)[C@H](NC(=O)[C@H](CC(C)C)NC(=O)[C@H](Cc1c[nH]c2ccccc12)NC(=O)[C@H](CCC(=O)O)NC(=O)[C@@H](NC(=O)[C@H](Cc1ccccc1)NC(=O)[C@H](C)NC(=O)C(C)(C)NC(=O)[C@H](CCC(N)=O)NC(=O)[C@H](C)NC(=O)[C@H](CCC(N)=O)NC(=O)[C@H](CCCCN)NC(=O)[C@H](CCC(=O)O)NC(=O)[C@H](CC(C)C)NC(=O)C(C)(C)NC(=O)[C@@H](NC(=O)[C@H](CO)NC(=O)[C@H](Cc1ccc(O)cc1)NC(=O)[C@H](CC(=O)O)NC(=O)[C@H](CO)NC(=O)[C@@H](NC(=O)[C@H](Cc1ccccc1)NC(=O)[C@@H](NC(=O)CNC(=O)[C@H](CCC(=O)O)NC(=O)C(C)(C)NC(=O)[C@@H](N)Cc1ccc(O)cc1)[C@@H](C)O)[C@@H](C)O)[C@@H](C)CC)C(C)C)C(=O)N[C@@H](CCCCNC(=O)[C@@H](N)CCCCNC(=O)CC[C@H](NC(=O)CC[C@H](NC(=O)CC[C@H](NC(=O)CC[C@H](NC(=O)CC[C@H](NC(=O)CC[C@H](NC(=O)CCCCCCCCCCCCCCCCCCC(=O)O)C(=O)O)C(=O)O)C(=O)O)C(=O)O)C(=O)O)C(=O)O)C(=O)NCC(=O)NCC(=O)N1CCC[C@H]1C(=O)N[C@@H](CO)C(=O)N[C@@H](CO)C(=O)NCC(=O)N[C@@H](C)C(=O)N[C@@H](CO)C(=O)N[C@@H](CC(C)C)C(=O)N[C@@H](CCCNC(=N)N)C(=O)N[C@@H](Cc1c[nH]cn1)C(=O)N[C@@H](Cc1ccc(O)cc1)C(=O)N[C@@H](Cc1ccc(O)cc1)C(=O)N[C@@H](CC(N)=O)C(=O)N[C@@H](Cc1c[nH]c2ccccc12)C(=O)N[C@@H](CC(C)C)C(=O)N[C@H](C(=O)N[C@@H](CCCNC(=N)N)C(=O)N[C@@H](CCC(N)=O)C(=O)N(C)[C@@H](CCCNC(=N)N)C(=O)N[C@@H](Cc1ccc(O)cc1)C(N)=O)[C@@H](C)O [Compound 83, Y-Aib-E-G-T-F-T-S-D-Y-S-I-Aib-L-E-K-Q-A-Q-Aib-A-F-V-E-W-L-I-K(1,3)-G-G-P-S-S-G-A-S-L-R-H-Y-Y-N-W-L-T-R-Q-NMeR-Y-NH2.C20DA-gGlu-gGlu-gGlu-gGlu-gGlu-gGlu-eLys(1,2)] |
| – | 0.15 | 0.22 | 1.11 | 12.6 | 10.3 | – | CC[C@H](C)[C@H](NC(=O)[C@H](CC(C)C)NC(=O)[C@H](Cc1c[nH]c2ccccc12)NC(=O)[C@H](CCC(=O)O)NC(=O)[C@@H](NC(=O)[C@H](Cc1ccccc1)NC(=O)[C@H](C)NC(=O)C(C)(C)NC(=O)[C@H](CCC(N)=O)NC(=O)[C@H](C)NC(=O)[C@H](CCC(N)=O)NC(=O)[C@H](CCCCN)NC(=O)[C@H](CCC(=O)O)NC(=O)[C@H](CC(C)C)NC(=O)C(C)(C)NC(=O)[C@@H](NC(=O)[C@H](CO)NC(=O)[C@H](Cc1ccc(O)cc1)NC(=O)[C@H](CC(=O)O)NC(=O)[C@H](CO)NC(=O)[C@@H](NC(=O)[C@H](Cc1ccccc1)NC(=O)[C@@H](NC(=O)CNC(=O)[C@H](CCC(=O)O)NC(=O)C(C)(C)NC(=O)[C@@H](N)Cc1ccc(O)cc1)[C@@H](C)O)[C@@H](C)O)[C@@H](C)CC)C(C)C)C(=O)N[C@@H](CCCCNC(=O)[C@@H](N)CCCCNC(=O)CC[C@H](NC(=O)CC[C@H](NC(=O)CC[C@H](NC(=O)CC[C@H](NC(=O)CC[C@H](NC(=O)CC[C@H](NC(=O)CCCCCCCCCCCCCCCCCCC(=O)O)C(=O)O)C(=O)O)C(=O)O)C(=O)O)C(=O)O)C(=O)O)C(=O)NCC(=O)NCC(=O)N1CCC[C@H]1C(=O)N[C@@H](CO)C(=O)N[C@@H](CO)C(=O)NCC(=O)N[C@@H](C)C(=O)N[C@@H](CO)C(=O)N[C@@H](CC(C)C)C(=O)N[C@@H](CCCNC(=N)N)C(=O)N[C@@H](Cc1c[nH]cn1)C(=O)N[C@@H](Cc1ccc(O)cc1)C(=O)N[C@@H](Cc1ccc(O)cc1)C(=O)N[C@@H](CC(N)=O)C(=O)N[C@@H](Cc1c[nH]c2ccccc12)C(=O)N[C@@H](CC(C)C)C(=O)N[C@H](C(=O)N[C@@H](CCCNC(=N)N)C(=O)N(C)[C@@H](CCC(N)=O)C(=O)N[C@@H](CCCNC(=N)N)C(=O)N[C@@H](Cc1ccc(O)cc1)C(N)=O)[C@@H](C)O [Compound 85, Y-Aib-E-G-T-F-T-S-D-Y-S-I-Aib-L-E-K-Q-A-Q-Aib-A-F-V-E-W-L-I-K(1,3)-G-G-P-S-S-G-A-S-L-R-H-Y-Y-N-W-L-T-R-NMeQ-R-Y-NH2.C20DA-gGlu-gGlu-gGlu-gGlu-gGlu-gGlu-eLys(1,2)] |
